Drawing on patent publication US8772293B2, “Chemical compounds” (Pfizer Limited, priority 2010, dated 2014), this text covers IC50 for 16 molecules.

Counter-ions that a name gives are not always drawn.

The target of this experiment is T1, Nav1.7 (or SCN9A) channel (Homo sapiens, UniProt Q15858).
T1 construct: expressed in transfected cells
T1 sequence (Q15858 whole entry): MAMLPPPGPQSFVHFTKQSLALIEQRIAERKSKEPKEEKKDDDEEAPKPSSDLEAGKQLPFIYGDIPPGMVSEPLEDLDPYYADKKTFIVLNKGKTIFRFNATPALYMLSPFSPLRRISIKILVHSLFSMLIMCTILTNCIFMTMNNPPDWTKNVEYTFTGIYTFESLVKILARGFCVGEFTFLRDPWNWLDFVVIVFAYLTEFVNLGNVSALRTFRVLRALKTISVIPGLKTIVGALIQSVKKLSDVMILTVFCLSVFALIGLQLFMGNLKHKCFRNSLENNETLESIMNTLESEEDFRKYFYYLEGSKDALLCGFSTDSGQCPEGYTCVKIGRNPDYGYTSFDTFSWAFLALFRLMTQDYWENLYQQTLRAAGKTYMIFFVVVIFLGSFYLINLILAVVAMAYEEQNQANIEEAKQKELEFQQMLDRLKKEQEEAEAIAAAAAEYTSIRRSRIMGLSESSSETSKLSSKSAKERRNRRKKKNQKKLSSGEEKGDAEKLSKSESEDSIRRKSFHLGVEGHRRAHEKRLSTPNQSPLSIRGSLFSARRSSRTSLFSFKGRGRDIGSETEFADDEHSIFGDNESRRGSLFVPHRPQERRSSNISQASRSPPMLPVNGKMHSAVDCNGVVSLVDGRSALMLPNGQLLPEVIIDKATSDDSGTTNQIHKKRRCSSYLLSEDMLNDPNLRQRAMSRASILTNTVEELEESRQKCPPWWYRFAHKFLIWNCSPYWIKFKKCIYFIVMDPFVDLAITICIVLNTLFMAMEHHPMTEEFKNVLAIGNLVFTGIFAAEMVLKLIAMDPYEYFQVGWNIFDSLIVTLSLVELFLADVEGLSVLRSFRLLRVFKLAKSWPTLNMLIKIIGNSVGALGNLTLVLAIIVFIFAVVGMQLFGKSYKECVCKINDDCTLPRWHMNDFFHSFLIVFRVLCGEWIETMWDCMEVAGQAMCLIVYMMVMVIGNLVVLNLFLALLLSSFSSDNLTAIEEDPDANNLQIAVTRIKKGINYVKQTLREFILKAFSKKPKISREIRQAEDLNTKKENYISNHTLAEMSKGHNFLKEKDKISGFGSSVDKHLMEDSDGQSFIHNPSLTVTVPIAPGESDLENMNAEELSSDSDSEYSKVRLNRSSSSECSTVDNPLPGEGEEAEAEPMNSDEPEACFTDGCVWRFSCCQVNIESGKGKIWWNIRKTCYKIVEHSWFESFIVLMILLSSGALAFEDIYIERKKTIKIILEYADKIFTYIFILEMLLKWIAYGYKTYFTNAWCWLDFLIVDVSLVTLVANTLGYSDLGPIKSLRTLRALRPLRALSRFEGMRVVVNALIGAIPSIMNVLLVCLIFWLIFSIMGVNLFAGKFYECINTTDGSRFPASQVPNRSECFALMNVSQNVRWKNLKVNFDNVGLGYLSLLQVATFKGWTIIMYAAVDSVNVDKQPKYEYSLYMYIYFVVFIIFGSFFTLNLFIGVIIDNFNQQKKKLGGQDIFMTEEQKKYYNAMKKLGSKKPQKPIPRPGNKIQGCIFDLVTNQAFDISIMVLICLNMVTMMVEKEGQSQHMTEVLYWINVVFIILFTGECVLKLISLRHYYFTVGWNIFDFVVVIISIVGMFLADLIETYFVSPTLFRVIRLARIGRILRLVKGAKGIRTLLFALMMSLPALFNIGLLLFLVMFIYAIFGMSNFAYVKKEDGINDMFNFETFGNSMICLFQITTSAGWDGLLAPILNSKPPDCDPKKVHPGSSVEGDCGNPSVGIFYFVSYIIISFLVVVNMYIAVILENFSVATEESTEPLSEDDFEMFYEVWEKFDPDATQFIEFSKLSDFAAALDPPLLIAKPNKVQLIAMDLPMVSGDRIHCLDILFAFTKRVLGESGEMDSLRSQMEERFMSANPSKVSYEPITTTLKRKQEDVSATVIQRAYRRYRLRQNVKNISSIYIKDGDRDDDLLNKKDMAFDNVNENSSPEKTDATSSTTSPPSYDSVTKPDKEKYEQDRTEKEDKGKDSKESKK
As to the kind of experiment: Nav1.7 (hSCN9A) PatchXpress electrophysiology in HEK cells. Format: cell-based. As to conditions: PatchXpress platform; HEK cells stably expressing hSCN9A; held at V1/2 of inactivation; calculated from single point % inhibition; read-out: Nav1.7 EIC50 (estimated IC-50). Here is the method:
The ability of the compounds of formula (I) to block the Nav1.7 (or SCN9A) channel were measured using the assay described below.
Human Embryonic Kidney (HEK) cells were transfected with an hSCN9A construct using lipofectamine reagent (Invitrogen), using standard techniques. Cells stably expressing the hSCN9A constructs were identified by their resistance to G-418 (400 μg/ml). Clones were screened for expression using the whole-cell voltage-clamp technique.
HEK cells stably transfected with hSCN9A were maintained in DMEM medium supplemented with 10% heat-inactivated fetal bovine serum and 400 µg/ml G-418 in an incubator at 37° C. with a humidified atmosphere of 10% CO2. For HTS, cells were harvested from flasks by trypsinization and replated in an appropriate multi-well plate (typically 96 or 384 wells/plate) such that confluence would be achieved within 24 hours of plating. For electrophysiological studies, cells were removed from the culture flask by brief trypsinization and re-plated at low density onto glass cover slips. Cells were typically used for electrophysiological experiments within 24 to 72 hours after plating.
Cover slips containing HEK cells expressing hSCN9A were placed in a bath on the stage of an inverted microscope and perfused (approximately 1 ml/minutes) with extracellular solution of the following composition: 138 mM NaCl, 2 mM CaCl2, 5.4 mM KCl, 1 mM MgCl2, 10 mM glucose, and 10 mM HEPES, pH 7.4, with NaOH. […] The osmolarity of the extracellular and intracellular solutions was 300 mOsm/kg and 295 mOsm/kg, respectively. All recordings were made at room temperature (22-24° C.) using AXOPATCH 200B amplifiers and PCLAMP software (Axon Instruments, Burlingame, Calif.).
hSCN9A currents in HEK cells were measured using the whole-cell configuration of the patch-clamp technique (Hamill et al., 1981). Uncompensated series resistance was typically 2 to 5 mega ohms and >85% series resistance compensation was routinely achieved. As a result, voltage errors were negligible and no correction was applied. Current records were acquired at 20 to 50 KHz and filtered at 5 to 10 KHz.
HEK cells stably transfected with hSCN9A were viewed under Hoffman contrast optics and placed in front of an array of flow pipes emitting either control or compound-containing extracellular solutions. All compounds were dissolved in dimethyl sulfoxide to make 10 mM stock solutions, which were then diluted into extracellular solution to attain the final concentrations desired. […] The voltage-dependence of inactivation was determined by applying a series of depolarizing prepulses (8 sec long in 10 mV increments) from a negative holding potential. The voltage was then immediately stepped to 0 mV to assess the magnitude of the sodium current. Currents elicited at 0 mV were plotted as a function of prepulse potential to allow estimation of the voltage at which 50% of the channels were inactivated (midpoint of inactivation or V1/2). Compounds were tested for their ability to inhibit hSCN9A sodium channels by activating the channel with a 20 msec voltage step to 0 mV following an 8 second conditioning prepulse to the empirically determined V1/2. Compound effect (% inhibition) was determined by difference in current amplitude before and after application of test compounds. For ease of comparison, “estimated IC-50” (EIC50) values were calculated from single point electrophysiology data by the following equation, (tested concentration, uM)×(100-% inhibition/% inhibition). Inhibition values <20% and >80% were excluded from the calculation.
Electrophysiological assays were conducted with PatchXpress 7000 hardware and associated software (Molecular Devices Corp). All assay buffers and solutions were identical to those used in conventional whole-cell voltage clamp experiments described above. hSCN9A cells were grown as above to 50%-80% confluency and harvested by trypsinization. […]
Take `Nc1n[nH]cc1-c1cc(-c2cccc(C(F)(F)F)c2)ccc1Oc1cc(F)c(S(=O)(=O)Nc2nncs2)cc1Cl` [Example 25, 4-{[3-(3-Amino-1H-pyrazol-4-yl)-3′-(trifluoromethyl)biphenyl-4-yl]oxy}-5-chloro-2-fluoro-N-(1,3,4-thiadiazol-2-yl)benzenesulfonamide]: the IC50 is 0.8 nM.

With `O=S(=O)(Nc1nncs1)c1cc(Cl)c(Oc2cc(Cl)c(-c3cccc(F)c3)cc2-c2ccnnc2)cc1F` [Example 26, 5-Chloro-4-{[2-chloro-3′-fluoro-5-(pyridazin-4-yl)biphenyl-4-yl]oxy}-2-fluoro-N-(1,3,4-thiadiazol-2-yl)benzenesulfonamide], the IC50 was 2.3 nM.

Regarding `O=S(=O)(Nc1nncs1)c1cc(Cl)c(Oc2cc(Cl)c(-c3ccccc3F)cc2-c2ccnnc2)cc1F` [Example 27, 5-Chloro-4-{[2-chloro-2′-fluoro-5-(pyridazin-4-yl)biphenyl-4-yl]oxy}-2-fluoro-N-(1,3,4-thiadiazol-2-yl)benzenesulfonamide], the IC50 is 0.9 nM.

On to `O=S(=O)(Nc1nncs1)c1cc(Cl)c(Oc2cc(Cl)c(-c3cccc(C(F)(F)F)c3)cc2-c2ccnnc2)cc1F` [Example 28, 5-Chloro-4-{[2-chloro-5-(pyridazin-4-yl)-3′-(trifluoromethyl)biphenyl-4-yl]oxy}-2-fluoro-N-(1,3,4-thiadiazol-2-yl)benzenesulfonamide], for which the IC50 is 0.9 nM.

As for `O=S(=O)(Nc1nncs1)c1cc(Cl)c(Oc2ccc(-c3ccc(Cl)c(C(F)(F)F)c3)cc2-c2ccnnc2)cc1F` [Example 29, 5-Chloro-4-{[4′-chloro-3-(pyridazin-4-yl)-3′-(trifluoromethyl)biphenyl-4-yl]oxy}-2-fluoro-N-(1,3,4-thiadiazol-2-yl)benzenesulfonamide], the IC50 was 0.8 nM.

As to `O=S(=O)(Nc1nncs1)c1cc(Cl)c(Oc2ccc(-c3ccc(C(F)(F)F)nc3)cc2-c2ccnnc2)cc1F` [Example 30, 5-Chloro-2-fluoro-4-{2-(pyridazin-4-yl)-4-[6-(trifluoromethyl)pyridin-3-yl]phenoxy}-N-(1,3,4-thiadiazol-2-yl)benzenesulfonamide], the IC50 was 23 nM.

In the case of `O=S(=O)(Nc1nncs1)c1cc(Cl)c(Oc2ccc(-c3cccc(C(F)(F)F)n3)cc2-c2ccnnc2)cc1F` [Example 31, 5-Chloro-2-fluoro-4-{2-(pyridazin-4-yl)-4-[6-(trifluoromethyl)pyridin-2-yl]phenoxy}-N-(1,3,4-thiadiazol-2-yl)benzenesulfonamide], the IC50 is 16 nM.

In the case of `N#Cc1cccc(-c2ccc(Oc3cc(F)c(S(=O)(=O)Nc4nncs4)cc3Cl)c(-c3c[nH]nc3N)c2)c1` [Example 32, 4-{[3-(5-Amino-1H-pyrazol-4-yl)-3′-cyanobiphenyl-4-yl]oxy}-5-chloro-2-fluoro-N-(1,3,4-thiadiazol-2-yl)benzenesulfonamide], the IC50 is 5.3 nM.

As for `O=S(=O)(Nc1nncs1)c1cc(Cl)c(Oc2ccc(-c3ccnc(C(F)(F)F)c3)cc2-c2ccnnc2)cc1F` [Example 33], the IC50 was 16 nM.

`O=S(=O)(Nc1nncs1)c1cc(Cl)c(Oc2ccc(-c3ccc(C(F)(F)F)cc3)cc2-c2ccnc(N3CCNCC3)c2)cc1F` [Example 34, 5-Chloro-2-fluoro-4-({3-[2-(piperazin-1-yl)pyridin-4-yl]-4′-(trifluoromethyl)biphenyl-4-yl}oxy)-N-(1,3,4-thiadiazol-2-yl)benzenesulfonamide, hydrochloride]: the IC50 was 0.5 nM.

For `O=S(=O)(Nc1ccncn1)c1cc(Cl)c(Oc2ccc(-c3ccc(C(F)(F)F)cc3)cc2-c2ccnc(N3CCNCC3)c2)cc1F` [Example 35, 5-Chloro-2-fluoro-4-({3-[2-(piperazin-1-yl)pyridin-4-yl]-4′-(trifluoromethyl)biphenyl-4-yl}oxy)-N-(pyrimidin-4-yl)benzenesulfonamide hydrochloride salt], the IC50 is 2.2 nM.

On to `O=S(=O)(Nc1nncs1)c1cc(Cl)c(Oc2cc(-c3cccc(F)c3)c(Cl)cc2-c2ccnnc2)cc1F` [Example 36, 5-Chloro-4-[(6-chloro-3′-fluoro-4-pyridazin-4-ylbiphenyl-3-yl)oxy]-2-fluoro-N-1,3,4-thiadiazol-2-ylbenzenesulfonamide], for which the IC50 is 11 nM.

As to `O=S(=O)(Nc1nncs1)c1cc(Cl)c(Oc2cc(-c3ccc(F)cc3)c(Cl)cc2-c2ccnnc2)cc1F` [Example 37, 5-Chloro-4-[(6-chloro-4′-fluoro-4-pyridazin-4-ylbiphenyl-3-yl)oxy]-2-fluoro-N-1,3,4-thiadiazol-2-ylbenzenesulfonamide], the IC50 is 12 nM.

With `O=S(=O)(Nc1nncs1)c1cc(Cl)c(Oc2cc(-c3ccccc3F)c(Cl)cc2-c2ccnnc2)cc1F` [Example 38, 5-Chloro-4-[(6-chloro-2′-fluoro-4-pyridazin-4-ylbiphenyl-3-yl)oxy]-2-fluoro-N-1,3,4-thiadiazol-2-ylbenzenesulfonamide], the IC50 was 18 nM.

As for `N#Cc1cccc(-c2ccc(Oc3cc(F)c(S(=O)(=O)Nc4nncs4)cc3Cl)c(-c3ccnnc3)c2)c1` [Example 39, 5-chloro-4-[(3′-cyano-3-pyridazin-4-ylbiphenyl-4-yl)oxy]-2-fluoro-N-1,3,4-thiadiazol-2-ylbenzenesulfonamide], the IC50 was 7.7 nM.

`O=S(=O)(Nc1ncccn1)c1cc(Cl)c(Oc2ccc(-c3ccc(C(F)(F)F)cc3)cc2-c2ccnc(N3CCNCC3)c2)cc1F` [Example 40, 5-chloro-2-fluoro-4-{[3-(2-piperazin-1-ylpyridin-4-yl)-4′-(trifluoromethyl)biphenyl-4-yl]oxy}-N-pyrimidin-2-ylbenzenesulfonamide]: the IC50 was 1 nM.
